Test results published in patent US12403150B2, “Tryptamine compositions for enhancing neurite outgrowth” (priority 2019, dated 2025).
“Also recorded” adds a separate entry of the source. Read-outs that look alike come from different tables or passages of the source.

B1: BDNF: brain-derived neurotrophic factor, positive control at 50 ng/ml (protein, UniProt P23560 19-247, looked up)
Neurotrophic factor BDNF …: APMKEANIRGQGGLAYPGVRTHGTLESVNGPKAGSRGLTSLADTFEHVIEELLDEDQKVRPNEENNKDADLYTSRVMLSSQVPLEPPLLFLLEEYKNYLDAANMSMRVRRHSDPARRGELSVCDSISEWVTAADKKTAVDMSGGTVTVLEKVPVSKGQLKQYFYETKCNPMGYTKEGCRGIDKRHWNSQCRTTQSYVRALTMDSKKRIGWRFIRIDTSCVCTLTIKRGR

What was measured:
5-HT2A receptor = 5-HT2A receptor (Homo sapiens, UniProt P28223); conditions: cited from earlier work
5-HT2A receptor, sequence (P28223 whole entry): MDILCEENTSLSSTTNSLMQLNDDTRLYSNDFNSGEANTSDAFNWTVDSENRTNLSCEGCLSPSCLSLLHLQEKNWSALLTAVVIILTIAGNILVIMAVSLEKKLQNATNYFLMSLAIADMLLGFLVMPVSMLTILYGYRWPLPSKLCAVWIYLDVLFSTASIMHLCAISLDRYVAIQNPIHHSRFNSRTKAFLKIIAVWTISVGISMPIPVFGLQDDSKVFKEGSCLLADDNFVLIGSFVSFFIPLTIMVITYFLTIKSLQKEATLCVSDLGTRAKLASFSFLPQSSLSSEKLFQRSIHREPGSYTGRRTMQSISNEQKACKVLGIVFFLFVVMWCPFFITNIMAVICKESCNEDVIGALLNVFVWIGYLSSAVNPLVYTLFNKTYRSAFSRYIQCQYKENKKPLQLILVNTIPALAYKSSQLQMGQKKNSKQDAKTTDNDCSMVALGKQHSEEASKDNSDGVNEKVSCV

[1] = system: inflammation in the lungs; conditions: in vivo; cited from earlier work
[2] = system: Rat Induced Pluripotent Stem Cell (iPSC) Neuron Culture / cortical neurons from rat embryo; type: cell-based; conditions: for Neurite length per neuron, % of control, Avg. / Neurite length per neuron, Length (μm), Avg. / Neurites per neuron, % of control, Avg. / Neurites per neuron, Number, Avg.: day 10
Description: Experiments were conducted to evaluate the neurotrophic effects of several purified tryptamines, H. erinaceum extracts, and the tryptamines combined with selected extracts of H. erinaceum. The tryptamines, baeocystin, norbaeocystin, and norpsilocin, were evaluated at final concentrations of 0.3 μg/mL, 1 μg/mL, 3 μg/mL, and 10 μg/mL. The experiments analyzed the H. erinaceum growth medium (rice or rice and oat hull fiber), the days of cultivation, the extract solvent (water, ethanol, or ethyl acetate), and the final concentration of the extract (31.3 μg/mL, 62.5 μg/mL, 125 μg/mL or 250 μg/mL). Finally, combinations of the three tryptamines and representative H. erinaceum extracts were combined and evaluated.
Rat Induced Pluripotent Stem Cell (iPSC) Neuron Culture
The following protocol was performed for each independent culture. Six culture experiments were performed for each condition.
Results are expressed as mean (±Standard Deviation).

[3] = system: PC12 cells treated with conditioned media from 1321N1 cells; assay: Neurite outgrowth of PC12 cells treated with conditioned media from 1321N1 cells; type: cell-based, rat; conditions: conditioned media from treated 1321N1 human astrocytoma cells; n=3
Text: 1321N1 human brain astrocytoma cells are known to excrete neurologically beneficial compounds when stimulated with neurotrophic compounds and fungal extracts including lion's mane (Mori et al., Biological and Pharmaceutical Bulletin, 9:1727-1732 (2008)). While some fungi have well established mechanisms by which they benefit neurological health, little is known about the role of psilocybin analogs specifically. Generally following the protocol of Mori et al., 2008, 1321N1 human astrocytoma cells were treated with psilocybin analogs, and conditioned media was collected and applied to differentiated rat pheochromocytoma PC12 cells to determine the resulting impact on neurite outgrowth.

hallucinogenic effects = conditions: cited from earlier work
[4] = system: nerve growth factor (NGF) protein; assay: ELISA of NGF protein in human 1321N1 brain cells; type: cell-based; conditions: human 1321N1 cells, compared to a vehicle control; n=3; p<0.05
Text: Accordingly, preliminary research has started to reveal the mechanisms by which psilocybin analogs may confer neurotrophic benefits that facilitate neurite outgrowth.
(§1) See Ly et al., “Psychedelics Promote Structural and Functional Neural Plasticity,” Cell Rep.

IL-10 = assay: ELISA of IL-10 in human 1321N1 brain cells; type: cell-based
Text: as §1

Molecule | Neurite length per neuron, % of control, Avg. ([2]; tryptamine 0.3 μg/mL) | Neurite length per neuron, Length (μm), Avg. ([2]; tryptamine 0.3 μg/mL) [μm] | Neurites per neuron, % of control, Avg. ([2]; tryptamine 0.3 μg/mL) | Neurites per neuron, Number, Avg. ([2]; tryptamine 0.3 μg/mL) | Neurite length per neuron, % of control, Avg. ([2]; tryptamine 1 μg/mL) | Neurite length per neuron, Length (μm), Avg. ([2]; tryptamine 1 μg/mL) [μm] | Neurites per neuron, % of control, Avg. ([2]; tryptamine 1 μg/mL) | Neurites per neuron, Number, Avg. ([2]; tryptamine 1 μg/mL) | Neurite length per neuron, % of control, Avg. ([2]; tryptamine 3 μg/mL) | Neurite length per neuron, Length (μm), Avg. ([2]; tryptamine 3 μg/mL) [μm] | Neurites per neuron, % of control, Avg. ([2]; tryptamine 3 μg/mL) | Neurites per neuron, Number, Avg. ([2]; tryptamine 3 μg/mL) | Neurite length per neuron, % of control, Avg. ([2]; tryptamine 10 μg/mL) | Neurite length per neuron, Length (μm), Avg. ([2]; tryptamine 10 μg/mL) [μm] | Neurites per neuron, % of control, Avg. ([2]; tryptamine 10 μg/mL) | Neurites per neuron, Number, Avg. ([2]; tryptamine 10 μg/mL) | neurite outgrowth in PC12 cells by conditioned media [3] | other results
COc1cc(C[C@@H](C)N)c(OC)cc1I [(R)-2,5-dimethoxy-4-iodoamphetamine] |  |  |  |  |  |  |  |  |  |  |  |  |  |  |  |  |  | activation of the 5-HT2A receptor (5-HT2A receptor): activate the 5-HT2A receptor; inflammation in the lungs [1]: prevent and reverse inflammation in the lungs
CNCCc1c[nH]c2cccc(OP(=O)(O)O)c12 [baeocystin, 4-phosphoryloxy-N-methyltryptamine] | 119.24 % of control | 418.30 | 94.46 % of control | 2.99 | 112.34 % of control | 394.11 | 93.66 % of control | 2.96 | 118.42 % of control | 415.42 | 97.18 % of control | 3.07 | 109.61 % of control | 384.52 | 96.87 % of control | 3.06 | induce neurite outgrowth | hallucinogenic effects after consumption (hallucinogenic effects; 4 mg, anecdotal experience): gentle hallucinogenic experience; hallucinogenic effects after oral consumption (hallucinogenic effects; 10 mg and 20 mg, case studies): did not produce any hallucinogenic effects
NCCc1c[nH]c2cccc(OP(=O)(O)O)c12 [norbaeocystin, 4-phosphoryloxy-tryptamine] | 128.69 % of control | 441.86 | 92.67 % of control | 3.09 | 127.25 % of control | 436.93 | 91.64 % of control | 3.06 | 112.13 % of control | 385.00 | 87.02 % of control | 2.90 | 112.67 % of control | 386.86 | 92.01 % of control | 3.07 | induce neurite outgrowth | expression of NGF protein [4]: increased expression of NGF protein; also recorded: induces the expression
CNCCc1c[nH]c2cccc(O)c12 [norpsilocin, 4-hydroxy-N-methyl-tryptamine] | 107.70 % of control | 344.09 | 83.77 % of control | 2.80 | 101.13 % of control | 347.25 | 87.18 % of control | 2.91 | 73.80 % of control | 253.40 | 79.36 % of control | 2.65 | 7.65 % of control | 26.28 | 27.71 % of control | 0.92 | induce neurite outgrowth | neurite outgrowth compared with vehicle control and other treatments, in words ([2]; at the concentrations tested): did not perform better than vehicle control; expression of the anti-inflammatory cytokine IL-10 (IL-10): induces the expression
B1 |  |  |  |  |  |  |  |  |  |  |  |  |  |  |  |  |  | Neurites per neuron, Number, Avg. ([2]; 50 ng/ml, positive control, one value per culture plate): 3.82
